Experimental data reported in US8517736B2, “Method for alleviating the undesired side effects of dental bleaching” (Dr. Gunnar Rolla Consultant AS, priority 2011, dated 2013).
Read-outs that look alike come from different tables or passages of the source.

Legend:
[1] = saturated, or less than saturated, aqueous solutions
[2] = tested on: hypersensitive bleached front teeth
Procedure: A volunteer had performed a self-bleaching procedure on their teeth, using a home kit. They complained and described their front teeth as extremely sensitive for changes of temperature in drinks or food. The teeth were rinsed carefully with water at room temperature, and isolated with cotton rolls. The teeth were kept dry and then treated with a generous amount of a saturated aqueous solution of Ca(OH)2, at an acceptable temperature, for a period of about 5 minutes. After a few additional minutes the cotton rolls were removed, and treatment with an aqueous solution of 2.0% by weight of NaF was performed, to induce formation CaF2, to stabilize the calcium added.

[3] = SEM micrographs of bleached human tooth enamel surface; settings: human tooth enamel after bleaching with peroxide
Excerpt: FIG. 2: A SEM micrograph showing the same tooth surface (from FIG. 1) covered with a film of dehydrated Ca(OH)2.
FIG. 3: A SEM micrograph showing the same tooth surface (from FIG. 2) subsequently treated with 2% by weight NaF-solution.

| SMILES | pH [1] | pH ([1]; listed as calcium hydroxide) | tooth colour after treatment ([2]; after saturated Ca(OH)2 then 2.0% NaF treatment) | reappearance of sensitivity after treatment ([2]; follow-up after saturated Ca(OH)2 then 2.0% NaF treatment) | hypersensitivity of bleached teeth after treatment ([2]; volunteer, saturated aqueous Ca(OH)2 about 5 minutes, followed by aqueous 2.0% by weight NaF) | enamel surface appearance after bleaching (SEM, FIG. 1) [3] |
| --- | --- | --- | --- | --- | --- | --- |
| [Ca+2].[OH-].[OH-] [Ca(OH)2, calcium hydroxide] | > 10 | 14 | maintained an acceptable colour | sensitivity has not reappeared | hypersensitivity was eliminated |  |
| OO [peroxide, hydrogen peroxide] |  |  |  |  |  | pitted and damaged by demineralization |
